The term EC50 denotes the concentration that produces a half-maximal response.

Chain of human activated kallikrein enzyme (P03952 391-638 limits assumed): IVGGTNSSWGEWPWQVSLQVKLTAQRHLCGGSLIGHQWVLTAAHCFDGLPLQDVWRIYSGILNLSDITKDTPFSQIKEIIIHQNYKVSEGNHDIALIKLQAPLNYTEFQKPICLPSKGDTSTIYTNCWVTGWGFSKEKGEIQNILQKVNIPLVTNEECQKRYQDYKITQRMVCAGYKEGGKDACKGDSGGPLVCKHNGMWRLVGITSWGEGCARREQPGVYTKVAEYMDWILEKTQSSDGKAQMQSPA
Chain of human activated kallikrein enzyme (P03952 20-390 partner limits assumed): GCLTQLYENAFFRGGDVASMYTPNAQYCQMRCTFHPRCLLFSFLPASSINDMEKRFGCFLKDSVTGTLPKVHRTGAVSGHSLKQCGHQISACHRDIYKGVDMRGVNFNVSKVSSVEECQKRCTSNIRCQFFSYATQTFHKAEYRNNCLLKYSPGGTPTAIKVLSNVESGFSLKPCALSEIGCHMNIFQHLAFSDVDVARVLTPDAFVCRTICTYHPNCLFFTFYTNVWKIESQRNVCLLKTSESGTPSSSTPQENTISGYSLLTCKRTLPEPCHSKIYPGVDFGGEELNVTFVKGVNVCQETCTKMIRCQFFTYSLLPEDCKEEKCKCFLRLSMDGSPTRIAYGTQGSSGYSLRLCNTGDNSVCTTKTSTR

This assay addresses human activated kallikrein enzyme (Homo sapiens, UniProt P03952). Description: Plasma kallikrein inhibition, fluorogenic PFR-AMC substrate, 500 pM activated kallikrein format. Type of assay: biochemical. The conditions noted are these: 500 pM activated kallikrein, 300 uM PFR-AMC, 30 min preincubation, 10 min reaction; read-out: Primary Dose Response Assay: Average EC50. In outline: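 High-enzyme format of the fluorogenic peptide assay, with EC50 taken from AMC signal: 500 pM activated kallikrein, 300 uM Pro-Phe-Arg-AMC, 30 min compound preincubation and 10 min reaction, all at room temperature, pH 7.5.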
For the compound `O=C(Nc1ccnc(NCc2cn3cc(C4CC4)ccc3n2)n1)[C@H]1C[C@@H]1c1cccc(Cl)c1` (racemic) [Example 347, (rac-(1S*,2S*))-2-(3-chlorophenyl)-N-(2-(((6-cyclopropylimidazo[1,2-a]pyridin-2-yl)methyl)amino)pyrimidin-4-yl)cyclopropane-1-carboxamide], the EC50 was in the range of 10 to 100 nM.

`Cc1ccnc([C@H]2C[C@@H]2C(=O)Nc2cc(N[C@H](C)c3cn4cc(C(F)F)cc(N5CC(=O)N(C)C5=O)c4n3)nc(C)n2)n1` [Example 428, (1S,2S)-N-(6-(((R)-1-(6-(difluoromethyl)-8-(3-methyl-2,4-dioxoimidazolidin-1-yl)imidazo[1,2-a]pyridin-2-yl)ethyl)amino)-2-methylpyrimidin-4-yl)-2-(4-methylpyrimidin-2-yl)cyclopropane-1-carboxamide]: the EC50 was less than 1 nM.

As for `CC(NC(=O)[C@H]1C[C@@H]1c1cccc(Cl)c1)c1cn(Cc2cn3cc(C4CC4)ccc3n2)nn1` (single isomer, unassigned) [Example 590, rac-(1S*,2S*)-2-(3-chlorophenyl)-N-(1-(1-((6-cyclopropylimidazo[1,2-a]pyridin-2-yl)methyl)-1H-1,2,3-triazol-4-yl)ethyl)cyclopropane-1-carboxamide], the 50% effective concentration (EC50) was in the range of 10 to 100 nM.

On to `CC1OCCN(c2cc(C3CC3)cn3cc(CNc4cc(NC(=O)[C@H]5C[C@@H]5c5cccc(Cl)c5)ncn4)nc23)C1=O` (relative stereo) [Example 68, rac-(1S*,2S*)-2-(3-chlorophenyl)-N-(6-(((6-cyclopropyl-8-(2-methyl-3-oxomorpholino)imidazo[1,2-α]pyridin-2-yl)methyl)amino)pyrimidin-4-yl)cyclopropane-1-carboxamide], for which the EC50 is 1 to 10 nM.

On to `CCOC(=O)CCc1cc(C2CC2)cn2cc(CNc3cc(NC(=O)[C@H]4C[C@@H]4c4cccc(Cl)c4)ncn3)nc12` (racemic) [Example 61, rac-ethyl 3-(2-(((6-((1S*,2S*)-2-(3-chlorophenyl)cyclopropane-1-carboxamido)pyrimidin-4-yl)amino)methyl)-6-cyclopropylimidazo[1,2-α]pyridin-8-yl)propanoate], for which the EC50 was 1 to 10 nM.

For the compound `Cc1ccnc([C@H]2C[C@@H]2C(=O)Nc2nncc(NCc3cn4cc(C5CC5)cc(N5CC(=O)N(C)C5=O)c4n3)n2)n1` [Example I-651, (1S,2S)—N-(5-(((6-cyclopropyl-8-(3-methyl-2,4-dioxoimidazolidin-1-yl)imidazo[1,2-a]pyridin-2-yl)methyl)amino)-1,2,4-triazin-3-yl)-2-(4-methylpyrimidin-2-yl)cyclopropane-1-carboxamide], the concentration giving a half-maximal response (EC50) was less than 1 nM.

Take `O=C(Nc1nccc2nn(Cc3cn4cc(C5CC5)ccc4n3)cc12)[C@H]1C[C@@H]1c1cc(Cl)ccn1` [Example 577, (1S,2S)-2-(4-chloropyridin-2-yl)-N-(2-((6-cyclopropylimidazo[1,2-a]pyridin-2-yl)methyl)-2H-pyrazolo[4,3-c]pyridin-4-yl)cyclopropane-1-carboxamide]: the EC50 was less than 1 nM.

Take `O=C(Nc1cc(NCc2cn3cc(C4CC4)cc(-n4cnnc4)c3n2)ncn1)[C@H]1C[C@@H]1c1cccc(Cl)c1` (racemic) [Example 405, rac-(1S*,2S*)-2-(3-chlorophenyl)-N-(6-(((6-cyclopropyl-8-(4H-1,2,4-triazol-4-yl)imidazo[1,2-a]pyridin-2-yl)methyl)amino)pyrimidin-4-yl)cyclopropane-1-carboxamide]: the EC50 was less than 1 nM.

For the compound `COc1ccc(Cl)cc1[C@H]1C[C@@H]1C(=O)Nc1cc(NCc2cn3cc(C4CC4)ccc3n2)ncn1` (racemic) [Example 47, rac-(1S*,2S*)-2-(5-chloro-2-methoxyphenyl)-N-(6-(((6-cyclopropylimidazo[1,2-a]pyridin-2-yl)methyl)amino)pyrimidin-4-yl)cyclopropane-1-carboxamide], the EC50 was 100 to 1000 nM.

`Cc1ccnc([C@H]2C[C@@H]2C(=O)Nc2cc(N3CC(C)(O)C[C@@H]3c3cn4cc(C5CC5)ccc4n3)ncn2)n1` (stereo partly drawn) [Example 426, (1S,2S)-N-(6-((2R)-2-(6-cyclopropylimidazo[1,2-a]pyridin-2-yl)-4-hydroxy-4-methylpyrrolidin-1-yl)pyrimidin-4-yl)-2-(4-methylpyrimidin-2-yl)cyclopropane-1-carboxamide]: the EC50 fell in the range of 10 to 100 nM.

On to `O=C(Nc1ncncc1OCc1cn2cc(C3CC3)ccc2n1)[C@H]1C[C@@H]1c1cccc(Cl)c1` [Example 596, (1S,2S)-2-(3-chlorophenyl)-N-(5-((6-cyclopropylimidazo[1,2-a]pyridin-2-yl)methoxy)pyrimidin-4-yl)cyclopropane-1-carboxamide], for which the EC50 fell in the range of 10 to 100 nM.

In the case of `Cc1cc(N2CC3CC3C2=O)c2nc([C@@H](C)Nc3cc(NC(=O)[C@H]4C[C@@H]4c4nccc(C)n4)nc(C)n3)cn2c1` (stereo partly drawn) [Example 430, (1S,2S)-N-(2-methyl-6-(((1R)-1-(6-methyl-8-(2-oxo-3-azabicyclo[3.1.0]hexan-3-yl)imidazo[1,2-a]pyridin-2-yl)ethyl)amino)pyrimidin-4-yl)-2-(4-methylpyrimidin-2-yl)cyclopropane-1-carboxamide], the EC50 fell in the range of 1 to 10 nM.

In the case of `Cc1ccnc([C@H]2C[C@@H]2C(=O)Nc2nncc(OC(C)c3cn4cc(C5CC5)cc(N5CC(=O)N(C)C5=O)c4n3)n2)n1` (stereo partly drawn) [Example 672, (1S,2S)—N-(5-(1-(6-cyclopropyl-8-(3-methyl-2,4-dioxoimidazolidin-1-yl)imidazo[1,2-a]pyridin-2-yl)ethoxy)-1,2,4-triazin-3-yl)-2-(4-methylpyrimidin-2-yl)cyclopropane-1-carboxamide], the EC50 is less than 1 nM.

With `Cc1ccnc([C@H]2C[C@@H]2C(=O)Nc2cc(N[C@@H](C)c3cn4cc(C(F)F)cc(N5CC(=O)N(C)C5=O)c4n3)nc(C)n2)n1` [Example 427, (1S,2S)-N-(6-(((S)-1-(6-(difluoromethyl)-8-(3-methyl-2,4-dioxoimidazolidin-1-yl)imidazo[1,2-a]pyridin-2-yl)ethyl)amino)-2-methylpyrimidin-4-yl)-2-(4-methylpyrimidin-2-yl)cyclopropane-1-carboxamide], the EC50 was 10 to 100 nM.

For the compound `CN1CCN(c2cc(C3CC3)cn3cc(CNc4cncc(NC(=O)[C@H]5C[C@@H]5c5cccc(Cl)c5)n4)nc23)CC1` [Example I-255, (1S,2S)-2-(3-chlorophenyl)-N-(6-(((6-cyclopropyl-8-(4-methylpiperazin-1-yl)imidazo[1,2-a]pyridin-2-yl)methyl)amino)pyrazin-2-yl)cyclopropane-1-carboxamide], the EC50 was in the range of 1 to 10 nM.

Take `CN(C(=O)[C@H]1C[C@@H]1c1cccc(Cl)c1)c1cc(NCc2cn3cc(C4CC4)ccc3n2)ncn1` [Example 350, (1S,2S)-2-(3-chlorophenyl)-N-(6-(((6-cyclopropylimidazo[1,2-a]pyridin-2-yl)methyl)amino)pyrimidin-4-yl)-N-methylcyclopropane-1-carboxamide]: the EC50 is more than 6000 nM.

As for `Cc1ccnc([C@H]2C[C@@H]2C(=O)Nc2nccn3nc(Cc4cn5cc(C6CC6)cc(N6CC(=O)N(C)C6=O)c5n4)cc23)n1` [Example I-649, (1S,2S)—N-(2-((6-cyclopropyl-8-(3-methyl-2,4-dioxoimidazolidin-1-yl)imidazo[1,2-a]pyridin-2-yl)methyl)pyrazolo[1,5-a]pyrazin-4-yl)-2-(4-methylpyrimidin-2-yl)cyclopropane-1-carboxamide], the EC50 was less than 1 nM.

Consider `Cc1cc2nn(Cc3cn4cc(C5CC5)ccc4n3)cc2c(NC(=O)[C@H]2C[C@@H]2c2cccc(Cl)c2)n1` [Example 581, (1S,2S)-2-(3-chlorophenyl)-N-(2-((6-cyclopropylimidazo[1,2-a]pyridin-2-yl)methyl)-6-methyl-2H-pyrazolo[4,3-c]pyridin-4-yl)cyclopropane-1-carboxamide], for which the EC50 was 1 to 10 nM.

On to `Cc1ccnc([C@H]2C[C@@H]2C(=O)Nc2cc(N[C@H](C)c3cn4cc(C5CC5)cc(N5C(=O)N(C)C(=O)C56COC6)c4n3)ncn2)n1` [Example 420, (1S,2S)-N-(6-(((R)-1-(6-cyclopropyl-8-(7-methyl-6,8-dioxo-2-oxa-5,7-diazaspiro[3.4]octan-5-yl)imidazo[1,2-a]pyridin-2-yl)ethyl)amino)pyrimidin-4-yl)-2-(4-methylpyrimidin-2-yl)cyclopropane-1-carboxamide], for which the EC50 was less than 1 nM.

On to `Cc1ccnc([C@H]2C[C@@H]2C(=O)Nc2cc(N(Cc3cn4cc(C5CC5)cc(N5CC(=O)N(C)C5=O)c4n3)C(=O)OC(C)OC(=O)C(C)C)ncn2)n1` (stereo partly drawn) [Example 467, 1-((((6-cyclopropyl-8-(3-methyl-2,4-dioxoimidazolidin-1-yl)imidazo[1,2-a]pyridin-2-yl)methyl)(6-((1S,2S)-2-(4-methylpyrimidin-2-yl)cyclopropane-1-carboxamido)pyrimidin-4-yl)carbamoyl)oxy)ethyl isobutyrate], for which the EC50 was in the range of 100 to 1000 nM.

As for `O=C(Nc1cc(N(CCO)Cc2cn3cc(C4CC4)ccc3n2)ncn1)[C@H]1C[C@@H]1c1cccc(Cl)c1` [Example 77, (1S,2S)-2-(3-chlorophenyl)-N-(6-(((6-cyclopropylimidazo[1,2-a]pyridin-2-yl)methyl)(2-hydroxyethyl)amino)pyrimidin-4-yl)cyclopropane-1-carboxamide], the EC50 fell in the range of 10 to 100 nM.

On to `O=C(Nc1nnc(NCc2cn3cc(C4CC4)ccc3n2)s1)[C@H]1C[C@@H]1c1cccc(Cl)c1` [Example 606, (1S,2S)-2-(3-chlorophenyl)-N-(5-(((6-cyclopropylimidazo[1,2-a]pyridin-2-yl)methyl)amino)-1,3,4-thiadiazol-2-yl)cyclopropane-1-carboxamide], for which the 50% effective concentration (EC50) was more than 6000 nM.

`COc1ccc(C#N)c([C@H]2C[C@@H]2C(=O)Nc2cc(NCc3cn4cc(C5CC5)ccc4n3)ncn2)c1F` (racemic) [Example 314, rac-(1S*,2S*)-2-(6-cyano-2-fluoro-3-methoxyphenyl)-N-(6-(((6-cyclopropylimidazo[1,2-a]pyridin-2-yl)methyl)amino)pyrimidin-4-yl)cyclopropane-1-carboxamide]: the EC50 lay in the range of 10 to 100 nM.

Values taken from patent US20240228488A1 (TAKEDA PHARMACEUTICAL COMPANY LIMITED, priority 2021, published 2024).
